# Test results: patent US11045457B2, “Piperidinyl-3-(aryloxy)propanamides and propanoates” (priority 2018, dated 2021)
# Tests used:
# SSTR4 [1] = biological target: T1, SSTR4 (Homo sapiens (Human), UniProt P31391); experiment: Inhibition of forskolin stimulated cAMP in CHO-K1 cells overexpressing SSTR4; assay type: cell-based; conditions: for EC50: read-out: SSTR4 Activity pEC50 (converted)
# Outline: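 Read-out is a HTRF LANCE Ultra cAMP competition using Eu-labelled streptavidin and biotin-cAMP, incubated 60 min at room temperature. It followed a 30 min room-temperature exposure of Kreb's Ringer-washed cells to compound plus forskolin. Potency is expressed as pEC50.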
# SSTR1 = SSTR1 (Homo sapiens (Human), UniProt P30872); experiment: SSTR1 I-125 somatostatin competition binding assay for selectivity versus SSTR4 (membranes from CHO-K1 cells overexpressing SSTR1); conditions: for SSTR1 Binding pIC50: competition with I-125 labeled somatostatin, CHO-K1 SSTR1 membranes;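 for all read-outs here: Filter-based radioligand binding, bound label counted by scintillation after 60 min incubation at room temperature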
# Chain of SSTR1 (P30872 whole entry): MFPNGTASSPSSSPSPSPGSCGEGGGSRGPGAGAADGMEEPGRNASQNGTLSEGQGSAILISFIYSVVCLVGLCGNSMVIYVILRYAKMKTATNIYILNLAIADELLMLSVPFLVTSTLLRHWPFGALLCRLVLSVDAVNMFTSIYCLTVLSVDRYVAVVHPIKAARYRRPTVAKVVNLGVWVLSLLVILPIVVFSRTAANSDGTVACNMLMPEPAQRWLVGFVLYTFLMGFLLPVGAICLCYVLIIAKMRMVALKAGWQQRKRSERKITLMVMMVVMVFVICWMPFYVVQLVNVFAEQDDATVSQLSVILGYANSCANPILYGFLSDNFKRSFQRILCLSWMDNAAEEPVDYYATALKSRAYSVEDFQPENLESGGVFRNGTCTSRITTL
# Procedure: Membranes from CHO-K1 cells overexpressing SSTR1 are purchased from Perkin Elmer (catalog number ES-520-M400UA). […] Then 10 μg of SSTR1 membranes in 50 μL assay buffer are added per well. The plate is incubated for 60 minutes at room temperature. […] The contents of the assay plate are transferred to filters with a TomTech harvester and washed 5 times with 20 mM HEPES, 100 mM NaCl. […] The scintillator sheets are melted to the filters using a heat block. The filters are then read in a MicroBeta scintillation counter. Binding Ki curves are generated using Activity Base for Screening Data Management and the results are reported as pIC50.
# SSTR4 [2] = biological target: T1, SSTR4; experiment: SSTR4 I-125 somatostatin competition binding assay (membranes from CHO-K1 cells overexpressing SSTR4); conditions: competition with I-125 labeled somatostatin; for IC50: read-out: SSTR4 Binding pIC50 (converted)
# Procedure: Membranes from CHO-K1 cells overexpressing SSTR4 are purchased from Perkin Elmer (catalog number ES-524-M400UA). Test compounds are suspended in DMSO and then diluted in assay buffer (25 mM HEPES pH 7.4, 10 mM MgCl2, 1 mM CaCl2), 0.5% BSA) plus 0.2 nM I-125 labeled somatostatin (Perkin Elmer catalog number NEX389). […] Then 1 μg of SSTR4 membranes in 50 μL assay buffer are added per well. The Plate is incubated for 60 minutes at room temperature. FilterMat A filters (Perkin Elmer catalog number 1450-421) are pre-soaked in 0.5% PEI (Sigma catalog number P3143). The contents of the assay plate are transferred to filters with a TomTech harvester and washed 5 times with 20 mM HEPES, 100 mM NaCl. The filters are dried in a microwave oven then transferred to sample bag containing a scintillator sheet (Perkin Elmer catalog number 1450-441). The scintillator sheets are melted to filters using a heat block. The filters are then read in a MicroBeta scintillation counter. Binding Ki curves are generated using Activity Base for Screening Data Management and the results are reported as pIC50.
# T1 sequence (P31391 whole entry): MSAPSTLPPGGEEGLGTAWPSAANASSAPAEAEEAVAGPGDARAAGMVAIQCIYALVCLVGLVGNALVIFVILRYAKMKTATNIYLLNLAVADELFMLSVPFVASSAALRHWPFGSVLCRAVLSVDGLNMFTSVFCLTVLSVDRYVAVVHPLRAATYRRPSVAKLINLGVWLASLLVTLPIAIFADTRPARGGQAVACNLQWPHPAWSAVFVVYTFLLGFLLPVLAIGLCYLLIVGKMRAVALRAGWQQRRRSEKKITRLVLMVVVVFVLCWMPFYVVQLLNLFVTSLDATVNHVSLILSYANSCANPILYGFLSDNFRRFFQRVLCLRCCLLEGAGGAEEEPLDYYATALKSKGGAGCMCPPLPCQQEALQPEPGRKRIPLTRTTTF
Compound,EC50 (SSTR4 [1]),IC50 (SSTR1),IC50 (SSTR4 [2]),SSTR4 Activity pEC50 (SSTR4 [1]),SSTR1 Binding pIC50 (SSTR1),SSTR4 Binding pIC50 (SSTR4 [2])
"Cc1ccc([C@@H]2CN(C)C[C@H]2NC(=O)C(C)(C)COc2ncccc2C(F)(F)F)cn1 (racemic) [Example 62, trans-2,2-dimethyl-N-(1-methyl-4-(6-methylpyridin-3-yl)pyrrolidin-3-yl)-3-((3-(trifluoromethyl)pyridin-2-yl)oxy)propanamide]",15.8 nM,251 nM,200 nM,,,
"Cc1ccccc1[C@@H]1CNCC[C@H]1NC(=O)C(C)(C)COc1ncccc1C(F)(F)F (relative stereo) [Example 157, 2,2-dimethyl-N-(trans-3-(o-tolyl)piperidin-4-yl)-3-((3-(trifluoromethyl)pyridin-2-yl)oxy)propanamide]",,,,9.9,7.0,8.8
"Cc1cccnc1OCC(C)(C)C(=O)N[C@@H]1CN(C)C[C@H]1c1cnn(C)c1 (relative stereo) [Example 18, trans-2,2-dimethyl-N-(1-methyl-4-(1-methyl-1H-pyrazol-4-yl)pyrrolidin-3-yl)-3-((3-methylpyridin-2-yl)oxy)propanamide]",,,,7.1,5.1,6.0
"C[C@H]1C[C@@H](NC(=O)C(C)(C)COc2ncccc2OC(F)(F)F)CCN1C (relative stereo) [Example 136, cis-N-(1,2-dimethylpiperidin-4-yl)-2,2-dimethyl-3-((3-(trifluoromethoxy)pyridin-2-yl)oxy)propanamide]",,,,8.1,4.8,7.1
"Cc1c([C@@H]2CN(C)C[C@H]2NC(=O)C(C)(C)COc2ncccc2OC(F)(F)F)cnn1C (relative stereo) [Example 30, trans-N-(4-(1,5-dimethyl-1H-pyrazol-4-yl)-1-methylpyrrolidin-3-yl)-2,2-dimethyl-3-((3-(trifluoromethoxy)pyridin-2-yl)oxy)propanamide]",,,,9.0,6.9,7.8
"CCc1ccccc1OCC(C)(C)C(=O)NC1CCN(C)CC1 [Example 72, 3-(2-ethylphenoxy)-2,2-dimethyl-N-(1-methylpiperidin-4-yl)propanamide]",,,,8.1,4.8,7.1
"CN1CCC(NC(=O)C(C)(C)COc2ccccc2Cl)CC1 [Example 66, 3-(2-chlorophenoxy)-2,2-dimethyl-N-(1-methylpiperidin-4-yl)propanamide]",,,,7.7,4.9,7.0
"Cc1ncccc1[C@@H]1CNCC[C@H]1N(C)C(=O)C(C)(C)COc1ncccc1C(F)(F)F (racemic) [Example 172, N,2,2-trimethyl-N-(trans-3-(2-methylpyridin-3-yl)piperidin-4-yl)-3-((3-(trifluoromethyl)pyridin-2-yl)oxy)propanamide]",12.6 nM,39800 nM,2000 nM,,,
"CN1CC[C@H](NC(=O)C(C)(C)COc2ncccc2C2CC2)[C@@H](F)C1 [Example 123, 3-((3-cyclopropylpyridin-2-yl)oxy)-N-((3S,4S)-3-fluoro-1-methylpiperidin-4-yl)-2,2-dimethylpropanamide]",,,,7.8,4.9,7.2
"CN1CC[C@@H](NC(=O)C(C)(C)COc2ncccc2C(F)(F)F)[C@H](c2cnn(C(F)F)c2)C1 (racemic) [Example 125, trans-N-(3-(1-(difluoromethyl)-1H-pyrazol-4-yl)-1-methylpiperidin-4-yl)-2,2-dimethyl-3-((3-(trifluoromethyl)pyridin-2-yl)oxy)propanamide]",1.58 nM,794 nM,50.1 nM,,,
